Measured values taken from PubChem BioAssay (NCI).
Where “and” joins values, the source holds several entries; their conditions need not be identical. Equal values may be shown once.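 A five-concentration, 48-hour dose response in 96-well plates underlies each endpoint, interpolated linearly between surrounding concentrations. GI50 = concentration required for 50% inhibition of growth. At the TGI there is no net growth.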

Columns and labels:
Assay in all cases: DTP human tumour cell line panel, 48 h
HT29 colon = tested on: HT29 colon
HS 578T breast = tested on: HS 578T breast
T-47D breast = tested on: T-47D breast
LOX IMVI melanoma = tested on: LOX IMVI melanoma
HCT-15 colon = tested on: HCT-15 colon
HCT-116 colon = tested on: HCT-116 colon
SNB-19 CNS = tested on: SNB-19 CNS
HCC-2998 colon = tested on: HCC-2998 colon
SF-295 CNS = tested on: SF-295 CNS
OVCAR-4 ovarian = tested on: OVCAR-4 ovarian

Compound | GI50 (HT29 colon) [µM] | TGI (HT29 colon) | GI50 (HS 578T breast) [µM] | TGI (HS 578T breast) | GI50 (T-47D breast) [µM] | TGI (T-47D breast) | GI50 (LOX IMVI melanoma) [µM] | TGI (LOX IMVI melanoma) [µM] | GI50 (HCT-15 colon) [µM] | TGI (HCT-15 colon) | GI50 (HCT-116 colon) [µM] | TGI (HCT-116 colon) | GI50 (SNB-19 CNS) [µM] | TGI (SNB-19 CNS) | GI50 (HCC-2998 colon) [µM] | TGI (HCC-2998 colon) | GI50 (SF-295 CNS) [µM] | TGI (SF-295 CNS) | GI50 (OVCAR-4 ovarian) [µM] | TGI (OVCAR-4 ovarian)
C=C1C(=O)O[C@H]2[C@H]1CC/C(CNC(=O)c1c[nH]c3ccc(F)cc13)=C\CC[C@@]1(C)O[C@@H]21 | 1.19 | 2.91 µM | 2.65 | 13.1 µM | 1.36 | 5.03 µM | 0.731 | 2.14 | 0.732 | 2.21 µM | 0.632 | 1.98 µM | 11.9 | 26.1 µM | 1.84 | 3.44 µM | 3.71 | 17 µM | 3.17 | 15.2 µM
Brc1cccc(-c2cc(-c3ccc4c(c3)OCCO4)[nH]n2)c1 | 0.804 | 27.4 µM | 1.25 | 30.6 µM | 1.34 | 50.1 µM | 1.53 | 30.4 | 0.731 | 30.6 µM | 1.13 | 29.4 µM | 3.05 | 50.5 µM | 3.92 | 33.4 µM | 2.93 | 32.7 µM | 7.79 | 48.5 µM
COC1(C(=O)N2Cc3nc(Cl)nc(N[C@H](C)c4cc(N)cc(C(F)(F)F)c4)c3C2)CCOCC1 | 18 | 36.6 µM | 17.7 | 80.3 µM | 20.8 | 83.5 µM | 15.6 | 29.2 | 23.2 | > 76.3 µM | 15.2 | 30.4 µM | 14.5 | 72 µM | 20.8 | 59.2 µM | 12.5 | 26.2 µM | 19.8 | 99.2 µM
O=C(c1cccs1)c1c(C(F)(F)F)n([O-])c2ccccc2[n+]1=O | 1.08 | 4.13 µM | 1.03 | 2.91 µM | 4.38 | 11.2 µM | 0.448 | 1.12 | 0.432 | 1.1 µM | 0.41 | 1.07 µM | 5.67 | 13.2 µM | 0.663 | 1.3 µM | 0.941 | 2.43 µM | 0.941 | 3.09 µM
C=CC(=O)N[C@H]1C=C(C)c2c(-c3cnc4ccccc4c3)c3c(N)ncnc3n2C1 | 11 | > 100 µM | 8.14 | 46.6 µM | 2.22 | > 100 µM | 7.16 | 23.5 | 23.1 | > 80.3 µM | 13.2 | 34.7 µM | 32.4 | > 100 µM | 22.4 | 45 µM | 22.9 | 68 µM | 13.5 | > 100 µM
CCN1CCN(c2nc(NCCCNc3ccnc4cc(Cl)ccc34)c3ccccc3n2)CC1 | 2.6 | 7.22 µM | 2.24 | 6.22 µM | 1.87 | 5.5 µM | 1.61 | 3.13 | 2.6 | 10.9 µM | 2.25 | 6.53 µM | 2.96 | 11.5 µM | 1.87 | 6.09 µM | 1.66 | 3.37 µM | 2.12 | 9.57 µM
Clc1ccccc1C(c1ccccc1)(c1ccccc1)n1ccnc1 | 2.24 | 7.1 µM and 28 µM | 3.45 | 19.7 µM and 35.2 µM | 2.3 | 14.5 µM and 30.4 µM | 1.69 | 4.66 | 2.58 | 12.5 µM and 22.7 µM | 1.44 | 3.35 µM and 23 µM | 3.14 | 17.7 µM and 32.3 µM | 3.3 | 12.7 µM and 31 µM | 1.94 | 9.67 µM and 23.7 µM | 2.95 | 15.5 µM and 41.3 µM
COc1ccc(C(=S)N2CCN(c3cccc(Cl)c3)CC2)cc1 | > 100 | > 100 µM | > 100 | > 100 µM | 65.8 | > 100 µM | > 100 | > 100 | > 100 | > 100 µM | > 100 | > 100 µM | > 100 | > 100 µM | > 100 | > 100 µM | 95.9 | > 100 µM | > 100 | > 100 µM
CN1CCN(CC#Cc2cccc(C(=O)c3cnn(-c4ccc(F)cc4)c3N)c2)CC1 | > 19.3 | > 25 µM | > 25 | > 25 µM | > 25 | > 25 µM | > 25 | > 25 | > 25 | > 25 µM | > 25 | > 25 µM | > 25 | > 25 µM | > 25 | > 25 µM | > 25 | > 25 µM | > 25 | > 25 µM
Cc1ccn2c3c(c(C(=O)O)c2c1)C(=O)c1ccccc1C3=O | 4.61 | > 100 µM | 3.71 | 29.8 µM | > 100 | > 100 µM | 4.36 | > 100 | 5.14 | > 100 µM | > 48.3 | > 100 µM | 4.24 | > 100 µM | 4.58 | > 100 µM | 2.25 | 8.68 µM | 12.6 | > 100 µM
O=C(CCN1CCN(c2cnc3ccccc3n2)CC1)c1csc2ccccc12 | 38.4 | > 100 µM | 43.6 | > 100 µM | 18.2 | 43.4 µM | 26 | 70.1 | 62.6 | > 100 µM | 36.2 | > 100 µM | > 100 | > 100 µM | > 100 | > 100 µM | 36.1 | > 100 µM | 28.2 | 92.5 µM
CCn1c(-c2nonc2N)nc2c(C#CCN)ncc(OCCCN)c21 | > 25 | > 25 µM | > 25 | > 25 µM | > 25 | > 25 µM | > 25 | > 25 | > 25 | > 25 µM | > 25 | > 25 µM | > 25 | > 25 µM | > 25 | > 25 µM | > 25 | > 25 µM | > 25 | > 25 µM
